Results from paper PMC2212834 (The Journal of Experimental Medicine, 2005).

Biological target: T1, ChemR23 (Homo sapiens, UniProt Q99788)
T1 sequence (Q99788 1-373): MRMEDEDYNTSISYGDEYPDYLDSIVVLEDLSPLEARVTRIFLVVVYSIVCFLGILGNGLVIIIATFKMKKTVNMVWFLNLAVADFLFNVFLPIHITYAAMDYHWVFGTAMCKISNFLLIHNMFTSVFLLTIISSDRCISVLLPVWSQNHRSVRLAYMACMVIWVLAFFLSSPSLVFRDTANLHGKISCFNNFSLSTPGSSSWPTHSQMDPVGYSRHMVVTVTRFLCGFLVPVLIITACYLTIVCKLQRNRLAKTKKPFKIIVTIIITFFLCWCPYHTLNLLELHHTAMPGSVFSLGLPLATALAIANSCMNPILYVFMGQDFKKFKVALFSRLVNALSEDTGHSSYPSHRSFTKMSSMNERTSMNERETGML
Assay: [3H]-RvE1 saturation radioligand binding
Assay type: cell-based

- Kd: 11.3 ± 5.4 nM
SMILES: CC[C@@H](O)/C=C/C=C\C[C@@H](O)/C=C/C=C/C=C\[C@@H](O)CCCC(=O)O [RvE1, 5S,12R,18R-trihydroxy-6Z,8E,10E,14Z,16E-EPA]
